Results taken from paper PMC11378298 (ACS Chemical Neuroscience, 2024).

What was measured:
in vitro = conditions: PAMPA
[1] = PAMPA; for permeability classification: versus caffeine
BV-2 cell line [2] = assay: IL-6 release in LPS-treated BV-2 cells (LANCE Ultra TR-FRET); type: cell-based, mouse; conditions: compound 10 μM; LPS 100 ng/mL
Protocol: Cell viability was determined by Presto Blue assay after 24 h. (B) Effect of compounds 11, 34, and 36 (0.1, 1, 10 μM) on NO-release (%) in LPS-treated (100 ng/mL) BV-2 cell line. NO-release was measured using a fluorometric assay with 2,3-diaminonaphthalene (DAN). (C, D) Effects of compounds 11 and 36 (0.1, 1, 10 μM) on IL-6 and TNF-α release in LPS-treated (100 ng/mL) BV-2 cell line. The IL-6 and TNF-α levels were measured using LANCE Ultra TR-FRET Detection Kit (PerkinElmer). Statistical analysis was performed using GraphPad Prism 9.0.0. All values are expressed as mean with SD. Differences among groups were evaluated by one-way ANOVA followed by posthoc analysis (Dunnett’s multiple comparison tests) vs. control group (LPS on BV-2 cells and okadaic acid on HT-22 cells) and were considered statistically significant if p < 0.05 (*p < 0.05, **p < 0.01, ***p < 0.001, and ****p < 0.0001). […]
The IL-6 and TNF-α levels in the culture supernatants were measured using LANCE Ultra TR-FRET Detection Kit (PerkinElmer), according to manufacturer protocol. […] After 1 h of incubation of IL-6 and 3h for incubation of TNF-α in the dark, at 22 °C, the plates were read with an EnVision plate reader (PerkinElmer) with the excitation wavelength at 320 nm, the donor emission at 615 nm, and the acceptor emission at 660 nm. […]

BV-2 cell line [3] = assay: NO release in LPS-treated BV-2 cells (DAN fluorometric assay); type: cell-based, mouse; conditions: compound 10 μM; LPS 100 ng/mL
Protocol: Cell viability was determined by Presto Blue assay after 24 h. (B) Effect of compounds 11, 34, and 36 (0.1, 1, 10 μM) on NO-release (%) in LPS-treated (100 ng/mL) BV-2 cell line. NO-release was measured using a fluorometric assay with 2,3-diaminonaphthalene (DAN). (C, D) Effects of compounds 11 and 36 (0.1, 1, 10 μM) on IL-6 and TNF-α release in LPS-treated (100 ng/mL) BV-2 cell line. The IL-6 and TNF-α levels were measured using LANCE Ultra TR-FRET Detection Kit (PerkinElmer). Statistical analysis was performed using GraphPad Prism 9.0.0. All values are expressed as mean with SD. Differences among groups were evaluated by one-way ANOVA followed by posthoc analysis (Dunnett’s multiple comparison tests) vs. control group (LPS on BV-2 cells and okadaic acid on HT-22 cells) and were considered statistically significant if p < 0.05 (*p < 0.05, **p < 0.01, ***p < 0.001, and ****p < 0.0001).
An important role in the pathogenesis of AD has been attributed to neuroinflammation resulting from the activation of astrocytes and microglial cells.[55] These processes lead to increased production of proinflammatory cytokines such as TNF-α or IL-6 that activate processes, e.g., tau hyperphosphorylation, causing injury and cell death.[56] A standard model of neuroinflammation is based on lipopolysaccharide-stimulated BV-2 microglial cells. In this study, we used this model to evaluate the anti-inflammatory properties of compounds 11, 34, and 36.[57] Our evaluation focused on monitoring the levels of key inflammatory markers, including nitric oxide (NO, Figure 6B) and cytokines, TNF-α and IL-6 (Figure 6C,D).
The cells were pretreated with tested compounds for 1 h. […]
The NO level in the culture supernatants was measured using 2,3-diaminonaphthalene (DAN) reagent according to the method of Nussler et al.[88] After 15 min of incubation at room temperature, the fluorescence intensity (EX 360; EM 440 nm) was measured using a microplate reader POLARstar Omega, (BMG Labtech). The values of nitric oxide were calculated as a percentage of control (maximal response of LPS).

CYP3A4 = CYP3A4 (Homo sapiens, UniProt P08684); conditions: for CYP3A4 activity at 0.1 µM / CYP3A4 activity at 1 µM / CYP3A4 activity at 10 µM / CYP3A4 activity at 25 µM: ± SD
From the text: Interactions with cytochrome enzymes are significant contributors to drug–drug interactions (DDIs), a crucial concern for patients who are on multiple medications. We determined the compounds’ influence on the most important CYP isoforms 3A4, 2D6, and 2C9, using the CYP450 inhibition luminescence assay from Promega (for details see Figures S23–S25 and Table S11 in the SI).
All protocols used for the evaluation of drug-like properties (ADME-To parameters) were described in our previous works.[58],[89] Precoated PAMPA Plate System Gentest was obtained from Corning, (Tewksbury, MA, USA). The metabolic stability assay was performed on human liver microsomes (HLMs, Sigma-Aldrich, St. Louis, MO, USA). The assays with microsomes were supported by MetaSite 6.0.1 software (Molecular Discovery Ltd. Hertfordshire, UK). To predict potential drug–drug interactions (DDIs) the influence on CYP3A4, CYP2D6, and CYP2C9 were carried with use of respective P450-Glo kit (Promega, Madison, WI, USA). The luminescence signal and absorbance were measured by using a microplate reader EnSpire PerkinElmer (Waltham, MA, USA). The LC/MS/MS analyses used in PAMPA and the assays with use of HLMs were obtained on Waters ACQUITY TQD system (Waters, Milford, CT, USA). […] Statistical significances and IC50 values were calculated by Graph Pad Prism 9 software. […]

[4] = Cytotoxicity in HT-22 cells (PrestoBlue); conditions: mouse, HT-22 hippocampal neuronal cells
Protocol: The compounds were tested at 5 concentrations (0.1, 1, 10, 50, and 100 μM).
Mouse Hippocampal Neuronal Cell Line (HT-22) was a generous gift from Dr Bartosz Pomierny of the Department of Biochemical Toxicology, Jagiellonian University Medical College, Krakow, Poland. Cells were cultured in Dulbecco’s modified Eagle’s Medium—high glucose (DMEM, Glutamax Thermo Fisher) supplemented with 10% heat-inactivated fetal bovine serum (Thermo Fisher), 100 IU/mL penicillin (Merck) and 100 μg/mL streptomycin (Merck). Cells were cultured in flasks (area 175 cm^2, Nunc), and incubated at 37 °C, 5% CO2. For the measurement of cell viability and neuroprotective effect against okadaic acid cells were placed in a 96-well culture plate (2 × 10^4 cells per well, Falcon). Before the tests, cells were grown for 24 h in the incubator (37 °C, 5% CO2).
Cell viability was evaluated using the PrestoBlue reagent (ThermoFisher), according to the manufacturer’s procedures.[87] Following 24 h of incubation with the tested molecule, PrestoBlue reagent was added to a microplate well in an amount equal to one-tenth of the remaining medium volume. The resulting mixture was incubated for 15 min at 37 °C, and the fluorescence intensity (EX 530 nm; EM 580 nm) was measured in the plate reader POLARstar Omega, (BMG Labtech).

Chain of CYP3A4 (P08684 whole entry, canonical isoform): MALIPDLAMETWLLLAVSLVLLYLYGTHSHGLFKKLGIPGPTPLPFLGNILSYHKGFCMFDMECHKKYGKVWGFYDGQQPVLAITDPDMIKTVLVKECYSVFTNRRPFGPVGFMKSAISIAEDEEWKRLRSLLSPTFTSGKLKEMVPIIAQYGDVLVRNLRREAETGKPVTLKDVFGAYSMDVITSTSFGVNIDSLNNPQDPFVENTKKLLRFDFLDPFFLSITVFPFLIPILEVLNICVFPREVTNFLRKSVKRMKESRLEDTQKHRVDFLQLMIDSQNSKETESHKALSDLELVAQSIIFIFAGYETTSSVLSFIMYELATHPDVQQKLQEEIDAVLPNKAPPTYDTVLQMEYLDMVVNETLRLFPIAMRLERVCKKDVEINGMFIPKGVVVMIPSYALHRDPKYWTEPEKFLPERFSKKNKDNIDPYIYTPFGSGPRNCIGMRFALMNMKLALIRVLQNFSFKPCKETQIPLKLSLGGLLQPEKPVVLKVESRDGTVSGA

| SMILES | Papp (in vitro) [×10⁻⁶ cm/s] | permeability classification [1] | IL-6 release (BV-2 cell line [2]) | NO release (BV-2 cell line [3]) | effect on CYP3A4 (CYP3A4) | CYP3A4 activity at 0.1 µM (CYP3A4) | CYP3A4 activity at 1 µM (CYP3A4) | CYP3A4 activity at 10 µM (CYP3A4) | CYP3A4 activity at 25 µM (CYP3A4) | IC50 at 24 h [4] [µM] | Pe ([1]; unit not given) |
| --- | --- | --- | --- | --- | --- | --- | --- | --- | --- | --- | --- |
| NC(=O)N1CC=C(c2ccnc(NC(=O)C3CC3)c2)C1 [Compound 11, 3-(2-(Cyclopropanecarboxamido)pyridin-4-yl)-2,5-dihydro-1H-pyrrole-1-carboxamide] | 0.53 ± 0.82 | might not penetrate through the biological membranes | significantly reducing the release | significantly reducing the release | inhibitory effect | 103.8 ± 5.9 % of control | 100.1 ± 17.6 % of control | 94.2 ± 17.5 % of control | 76.4 ± 2.9 % of control | 45.8 ± 9.7 |  |
| O=C(Nc1cc(-c2ccc(-c3ncon3)s2)ccn1)C1CC1 [Compound 36, N-(4-(5-(1,2,4-Oxadiazol-3-yl)thiophen-2-yl)pyridin-2-yl)cyclopropanecarboxamide] | 9.4 ± 0.89 | well permeable | significantly reducing the release | significantly reducing the release | inhibitory effect | 104.8 ± 3.4 % of control | 103.6 ± 11.0 % of control | 84.6 ± 15.1 % of control | 65.3 ± 11.9 % of control | > 100 | 9.4 |
